Laboratory results published in patent US10611847B2, “ABCG2 monoclonal antibody and uses thereof” (PEKING UNIVERSITY, priority 2016, dated 2020).

Columns and labels:
Assay type in all cases: cell-based
[1] = test system: A549; assay: Drug sensitization test (MTT); settings: 72 hours
Source text: (§1) MCF7 Flavo-resistant strain and A549 cisplatin-resistant strain (A549/cis) were used as the experimental cell line with high ABCG2 expression, and the corresponding non-resistant cells MCF7 and A549 with relatively low ABCG2 expression were used as control cell lines in the drug sensitization test. FTC is a specific inhibitor of ABCG2, so the cell group added with FTC was used as a positive control group; the cell group added with a corresponding volume of DMEM high glucose medium or RPMI-1640 medium was used as a negative control group. […] The ABCG2-PKU1, ABCG2-PKU1-1 and ABCG2-PKU2 antibodies prepared in Example 3, as well as mitoxantrone (MTX) and FTC were added. After 72 hours, MTT test was carried out and the absorbance was measured. […] The ratio of the IC50 of the drug-resistant cells to the IC50 of the original cells was calculated, which was the relative drug resistance. Breast cancer cell MCF7 and Flavopiridol (Flavo)-resistant strain MCF7/Flavo cells, lung cancer A549 cells and cisplatin (Cis)-resistant strain A549/Cis cells were divided into 11 groups in the growth inhibition analysis: […]

[2] = test system: A549/cis (Over-expressing ABCG2); assay: Drug sensitization test (MTT); settings: 72 hours
Source text: as §1

[3] = test system: MCF 7; assay: Drug sensitization test (MTT); settings: 72 hours
Source text: as §1

[4] = test system: MCF 7/Flavo (Over-expressing ABCG2); assay: Drug sensitization test (MTT); settings: 72 hours
Source text: as §1

[5] = test system: MCF7, MCF7/ADM, MCF7/FLV1000, MCF7/Mitoxantrone, A549, A549/cis, L02 and L02/Oct4 cells; assay: Tumor cell growth inhibition analysis; settings: agent alone; d1-d6 (FIG. 8)
Procedure: (1) Tumor cell MCF7 and the drug-resistant strains MCF7/ADM, MCF7/FLV1000, MCF7/Mitoxantrone obtained and identified in Example 4, A549 and A549/cis, L02 and L02/Oct4 cells were seeded in a 96-well plate, 3000 cells/90 μl/well, 6 replicate wells, incubated at 37° C. overnight.
(2) According to the following Tables 6-1 and 6-2, mitoxantrone, commercial ABCG2 antibody (BXP-21) and the three ABCG2 antibodies ABCG2-PKU1, ABCG2-PKU1-1 and ABCG2-PKU2 obtained in Example 3 were added to the plate. The plate was then incubated in a, 5% CO2 incubator at 37° C. 10 μl of DMSO was added to the well at d1, d2, d3, d4, d5, and d6, and the absorbance was measured using an ELISA instrument after 2 hours.
(3) Inhibitory rate calculation: OD value of drug-treatment—blank OD value/OD value without drug-treatment—blank OD value, a growth inhibition curve was plotted.

SMILES | Relative Drug Resistance ([1]; mitoxantrone alone) | Relative Drug Resistance ([2]; mitoxantrone alone) | Relative Drug Resistance ([3]; mitoxantrone alone) | Relative Drug Resistance ([4]; mitoxantrone alone) | inhibition of tumor cell growth [5] | Relative Drug Resistance ([1]; mitoxantrone + agent at 5 μM) | Relative Drug Resistance ([2]; mitoxantrone + agent at 5 μM) | Relative Drug Resistance ([3]; mitoxantrone + agent at 5 μM) | Relative Drug Resistance ([4]; mitoxantrone + agent at 5 μM)
O=C1c2c(O)ccc(O)c2C(=O)c2c(NCCNCCO)ccc(NCCNCCO)c21 [Mitoxantrone, mitoxantrone] | 1.00 | 1.00 | 1.00 | 1.00 | could inhibit the growth |  |  |  | 
COc1ccc2c3c([nH]c2c1)[C@H](C=C(C)C)N1C(=O)[C@@H]2CCCN2C(=O)[C@@H]1C3 [FTC] |  |  |  |  |  | 1.13 | 0.92 | 1.03 | 0.77
